From patent publication US20160215111A1, “MATERIALS AND METHODS” (THE UNIVERSITY OF SYDNEY, priority 2013, published 2016)

Experiments:
[1] = test system: rabbit polyclonal antibody with specificity against the C-terminal RKRK motif of tropoelastin; assay: C-terminal ELISA detection of RKRK exposure; format: binding; settings: for C-terminal ELISA detection: tissue culture plastic, increasing coating concentration (FIG. 13)
Excerpt: Rabbit polyclonal antibodies against exon 36 were raised by Biomatik. A peptide corresponding to exon 36 ([…]) conjugated to Keyhole Limpet Hemocyanin was used to immunize New Zealand rabbits. Exon 36 specific antibodies were purified from the resulting immune serum by affinity chromatography using the immunogen peptide. […] Therefore this protocol produced a rabbit polyclonal antibody with specificity against the C-terminal RKRK motif of tropoelastin.
Untreated or PIII treated polystyrene was incubated in peptide 36 containing buffer (10 mM PO4, 150 mM NaCl) of increasing pH for 1 hour at room temperature. After peptide immobilization the samples were washed 3× with PBS to remove non-bound peptide. Background antibody binding was blocked with 3% (w/v) BSA for 1 hour at room temperature. The primary rabbit-anti-C-terminal antibody was diluted to 1:5000 and added to the samples for 1 hour at room temperature. Non-bound antibody was removed with 3×PBS washes then detected with 1:10,000 diluted goat anti-rabbit whole IgG-HRP conjugated secondary antibody for 1 hour at room temperature. The secondary antibody was removed, the samples washed 3×PBS washes and then transferred to fresh tissue culture plates. ABTS solution (40 mM ABTS, 0.1 mM NaOAc, 0.05M NaH2PO4, 0.01% H2O2, pH 5) was added for 30 min and the absorbance read at 405 nm.

Human dermal fibroblasts [2] = assay: Cell attachment of human dermal fibroblasts to peptide coated polymer samples (crystal violet); format: cell-based; settings: for % cell attachment / maximal % cell attachment: BSA blocked; for cell binding activity after dry autoclaving / cell binding activity after heating: coated at pH 10, 0 mM NaCl; for cell binding activity after dry autoclaving: 120° C., 20 min (FIG. 10); for maximal % cell attachment: coating concentration 50 μM
Method: PFTE and polystyrene were obtained from Goodfellow. PEEK was sourced from Vitrex. […] Human dermal fibroblasts were cultured in a humidified 5% CO2 atmosphere in DMEM (Invitrogen) supplemented with 10% (v/v) fetal calf serum (Invitrogen), and passaged 1 in 10 every 3-4 days. Unless stated otherwise all other reagents were purchased from Sigma.
Where stated samples were incubated in 2% Tween-20 for 10 min at 70° C. then washed with PBS. Where stated non-specific cell binding was prevented with incubation in 10 mg/ml heat denatured (80° C./10 min) BSA for 1 hour at room temperature. Confluent 75 cm^2 flasks of cells were harvested by trypsinization, and the cell density adjusted to 5×10^5 cells/ml in serum free DMEM. The cells were added to the samples for 60 min at 37° C., 5% CO2 then non-adherent cells were removed with 2×1 PBS washes. Adherent cells were fixed with the addition of 5% glutaraldehyde (w/v) in PBS for 20 min. The samples were washed 3×PBS, and then the cells were stained with 0.1% (w/v) crystal violet in 0.2M MES pH 5.0 for 1 h at room temperature. After washing extensively with dH2O the samples were transferred to fresh tissue culture plates and the crystal violet was solubilised in 10% (v/v) acetic acid. The absorbance was measured at 570 nm using a plate reader. The absorbance was converted to % cell attachment using the equation of a linear regression fit of standard known cell number controls.
Samples were peptide coated as for cell attachment analysis then washed 3× with PBS. […] The samples were then autoclaved at 120° C., 100 kPa above atmospheric pressure with steam for 20 min. For slow cooled samples the temperature of the autoclave returned to room temperature over a period of 4 hours. The other samples were removed once the autoclave reached 70° C. and were immediately immersed in room temperature PBS. All samples were washed 3× with PBS prior to measuring cell attachment.

Human dermal fibroblasts [3] = assay: Cell morphology / spreading and patterned cell distribution by phase contrast microscopy; format: cell-based
Method: PFTE and polystyrene were obtained from Goodfellow. PEEK was sourced from Vitrex. Peptide 36 ([…]) and peptide 36 short ([…]) were synthesized by Auspep. Recombinant human tropoelastin corresponding to amino acid residues 27-724 of GenBank entry AAC98394 (gi 182020) was expressed and purified as previously described. Human dermal fibroblasts were cultured in a humidified 5% CO2 atmosphere in DMEM (Invitrogen) supplemented with 10% (v/v) fetal calf serum (Invitrogen), and passaged 1 in 10 every 3-4 days. Unless stated otherwise all other reagents were purchased from Sigma.
Samples were contact or shadow masked during PIII treatment by layering 3 mm wide low contact ADH kapton tape (contact mask) (Associated Gaskets, Australia) or a 130 μm stainless steel plate (shadow mask) (Mastercut Technologies, Australia) over the sample during PIII treatment. The masks were removed immediately after treatment.
Samples were peptide 36 coated, BSA blocked and cell seeded as for cell attachment. After incubation for 90 min the cells were fixed with the addition of 37% (w/v) formaldehyde directly to the cell media to achieve a final concentration of 3% (w/v) for 20 min. For opaque samples the cells were crystal violet stained as for cell attachment. The cell morphology was then observed by phase contrast microscopy.

[4] = PIII treated polystyrene (FIG. 3A, B)
[5] = post PIII allylamine vapor treated PTFE (30 min exposure), versus PIII treated PTFE (FIG. 6B)
[6] = untreated polystyrene (FIG. 3A, B)
[7] = tape or shadow masked PIII treated polymer (polystyrene, PTFE; FIG. 4)
[8] = untreated polystyrene (FIG. 3C)

## ACLGKACG [ΔRKRK peptide 36, peptide 36 where the RKRK motif was deleted]
[1]
  C-terminal ELISA detection: not capable of detecting
Human dermal fibroblasts [2]; PIII treated PTFE (FIG. 6B)
  cell binding activity: low levels of cell binding activity
Human dermal fibroblasts [2]; [4]
  cell attachment: did not support cell binding
Human dermal fibroblasts [2]; [5]
  cell binding activity: low levels of cell binding activity
Human dermal fibroblasts [2]; untreated PTFE (FIG. 6B)
  cell binding activity: low levels of cell binding activity
Human dermal fibroblasts [2]; [6]
  cell attachment: did not support cell binding
Human dermal fibroblasts [3]; PIII treated polystyrene (FIG. 3C)
  cell spreading: did not elicit cell spreading
Human dermal fibroblasts [3]; [7]
  patterned cell distribution: absence of cell attachment and spreading
Human dermal fibroblasts [3]; [8]
  cell spreading: did not elicit cell spreading

## ACLGKACGRKRK [peptide 36]
[1]; PIII treated polystyrene, association buffers with pH up to 8 (FIG. 8B)
  C-terminal ELISA detection of RKRK exposure: low levels of peptide 36 RKRK exposure
[1]; PIII treated polystyrene, coating concentrations up to 50 μM, 10 mM PO4, 150 mM NaCl, pH 7.4 (FIG. 8A)
  C-terminal ELISA detection of RKRK exposure: little RKRK-dependent antibody detection
[1]; PIII treated polystyrene, pH 10 association buffer, compared with untreated polystyrene (FIG. 8B)
  C-terminal ELISA detection of RKRK exposure: not statistically different to those obtained on untreated polystyrene
[1]
  C-terminal ELISA detection: detected
[1]; untreated polystyrene, 50 μM peptide, association buffer of increasing pH (FIG. 8B)
  C-terminal ELISA detection of RKRK exposure: detected peptide 36 across the entire range of pH
[1]; untreated polystyrene, 10 mM PO4, 150 mM NaCl, pH 7.4, increase up to 10 μM coating, none further at 50 μM (FIG. 8A)
  C-terminal ELISA detection of RKRK exposure: detected peptide 36 bound to the surface in a coating concentration dependent manner
Human dermal fibroblasts [2]; 800 second PIII treated PTFE
  % cell attachment: 4.3±1.8%
Human dermal fibroblasts [2]; PIII treated PTFE (FIG. 6B)
  cell binding activity: low levels
Human dermal fibroblasts [2]; PIII treated PTFE and PEEK, pH 6 association buffer (FIG. 7C, D)
  cell binding activity: low levels of cell binding activity
Human dermal fibroblasts [2]; PIII treated PTFE and PEEK, pH 10 association buffer (FIG. 7C, D)
  cell binding activity: high levels of cell binding activity
Human dermal fibroblasts [2]; PIII treated PTFE
  cell binding activity after dry autoclaving: not cell adhesive
Human dermal fibroblasts [2]; PIII treated PTFE, incubations of 70° C. and above (FIG. 9)
  cell binding activity after heating: baseline levels of cell binding
Human dermal fibroblasts [2]; PIII treated PTFE, pH 6, 150 mM NaCl autoclave liquid (FIG. 10A)
  cell binding activity after liquid autoclaving: reduced to background levels
Human dermal fibroblasts [2]; PIII treated PTFE, pH 10, 0 mM NaCl autoclave liquid, gradual cooling to room temperature (FIG. 10C)
  cell binding activity after liquid autoclaving: comparable peptide 36-cell binding activity to the no-autoclave control
Human dermal fibroblasts [2]; PIII treated PTFE, pH 10, 0 mM NaCl autoclave liquid, rapid cooling (FIG. 10B)
  cell binding activity after liquid autoclaving: partial peptide 36-cell binding activity was retained
Human dermal fibroblasts [2]; [4]
  cell attachment: not cell adhesive
Human dermal fibroblasts [2]; PIII treated polystyrene, association buffer pH 10, 150 mM NaCl (FIG. 7B)
  cell binding activity: maximal cell binding activity
Human dermal fibroblasts [2]; PIII treated polystyrene, association buffers of up to pH 8, 150 mM NaCl (FIG. 7B)
  cell binding activity: low levels of cell biding activity
Human dermal fibroblasts [2]; PIII treated polystyrene
  maximal % cell attachment: 5.1±0.5%
Human dermal fibroblasts [2]; PIII treated surface, 150 mM NaCl association buffer, pH 7.4 (FIG. 7A)
  cell binding activity: background levels of binding
Human dermal fibroblasts [2]; PIII treated surface, low ionic strength association buffer, pH 7.4 (FIG. 7A)
  cell binding activity: high levels of peptide 36-cell binding activity
Human dermal fibroblasts [2]; PTFE, 160 seconds of N2 plasma treatment
  peptide dependent cell attachment: background levels
Human dermal fibroblasts [2]; PTFE, N2 plasma treatments up to 20 seconds before coating
  % cell attachment: 99.3-106.9%
Human dermal fibroblasts [2]; [5]
  cell binding activity: far greater levels of cell binding activity
Human dermal fibroblasts [2]; untreated PTFE (FIG. 6B)
  cell binding activity: high levels of cell binding
Human dermal fibroblasts [2]; untreated PTFE
  cell binding activity after dry autoclaving: retained
Human dermal fibroblasts [2]; untreated PTFE, heated above 40° C. (FIG. 9)
  cell binding activity after heating: not altered
Human dermal fibroblasts [2]; untreated PTFE, regardless of the liquid buffer conditions (FIG. 10)
  cell binding activity after liquid autoclaving: lost
Human dermal fibroblasts [2]; untreated and PIII treated PTFE, heated 10 min up to 40° C. in pH 7.4, 150 mM NaCl (FIG. 9)
  cell binding activity after heating: remained cell adhesive
Human dermal fibroblasts [2]; untreated and PIII treated PTFE, coated in pH 10, 0 mM NaCl buffer (FIG. 10)
  cell binding activity without autoclaving: cell adhesive on both untreated and PIII treated PTFE
Human dermal fibroblasts [2]; [6]
  cell attachment: high levels of cell adhesion
Human dermal fibroblasts [2]; untreated polystyrene, Tween-20 washed
  cell attachment after Tween-20 washing: background levels
Human dermal fibroblasts [2]; untreated polystyrene, 50 μM peptide, 10 mM PO4 pH 7.4, independent of NaCl content of association buffer (FIG. 7A)
  cell binding activity: high levels of cell-binding activity
Human dermal fibroblasts [2]; untreated polystyrene
  maximal % cell attachment: 98.6±12.5%
Human dermal fibroblasts [2]; untreated polystyrene, insensitive to pH of association buffer, 150 mM NaCl (FIG. 7B)
  cell binding activity: high levels of cell binding activity
Human dermal fibroblasts [3]; tape masked PIII treated PTFE, association buffer pH 7.4, 150 mM NaCl (FIG. 11)
  patterned cell distribution: retained selectively by peptide 36 on the untreated regions
Human dermal fibroblasts [3]; tape masked PIII treated PTFE, association buffer pH 10, 0 mM NaCl (FIG. 11)
  patterned cell distribution: cell binding on both the untreated and PIII treated sections
Human dermal fibroblasts [3]; tape masked PIII treated PTFE, washed with 2% Tween-20 or 5% SDS in pH 10, 0 mM NaCl at 70° C., gradual cooling (FIG. 11)
  patterned cell distribution: cell attachment exclusively in the PIII treated regions
Human dermal fibroblasts [3]; [7]
  patterned cell distribution: clearly restricted to the untreated regions
Human dermal fibroblasts [3]; untreated polymer, Tween-20 washed
  cell spreading after Tween-20 washing: removed peptide 36 dependent cell spreading activity
Human dermal fibroblasts [3]; [8]
  cell spreading: phase dark and flattened
